Experimental data as given in US20080045546A1, “Tetradydro-Naphthalene And Urea Derivatives” (priority 2003, published 2008).
pIC50: −log10 of the molar value.

molecular target: T1, human VR1 (Homo sapiens, UniProt Q8NER1); test: Capsaicin-induced Ca2+ influx in the human VR1-transfected CHO cell line (Assay 1); assay type: cell-based; details: stimulation with 10 nM capsaicin; human VR1-CHOluc9aeq cells; read-out: activity class (IC50)
T1 construct: expressed in transfected cells
Description: [Measurement of Capsaicin-induced Ca^2+ Influx in the Human VR1-transfected CHO Cell Line](Assay 1)
(1) Establishment of the Human VR1-CHOluc9aeq Cell Line
Human vanilloid receptor (hVR1) cDNA was cloned from libraries of axotomized dorsal root ganglia (WO 00/29577). The cloned hVR1 cDNA was constructed with pcDNA3 vector and transfected into a CHOluc9aeq cell line. The cell line contains aequorin and CRE-luciferase reporter genes as read-out signals. The transfectants were cloned by limiting dilution in selection medium (DMEM/F12 medium (Gibco BRL) supplemented with 10% FCS, 1.4 mM Sodium pyruvate, 20 mM HEPES, 0.15% Sodium bicarbonate, 100 U/ml penicillin, 100 μg/ml streptomycin, 2 mM glutamine, non-essential amino acids and 2 mg/ml G418). Ca^2+ influx was examined in the capsaicin-stimulated clones. A high responder clone was selected and used for further experiments in the project. The human VR1-CHOluc9aeq cells were maintained in the selection medium and passaged every 3-4 days at 1-2.5×10^5 cells/flask ([…]).
(2) Measurement of Ca^2+ Influx Using FDSS-3000
Human VR1-CHOluc9aeq cells were suspended in a culture medium which is the same as the selection medium except for G418 and seeded at a density of 1,000 cells per well into 384-well plates (black walled clear-base/Nalge Nunc International). Following the culture for 48 hrs the medium was changed to 2 μM Fluo-3 AM (Molecular Probes) and 0.02% Puronic F-127 in assay buffer (Hank's balanced salt solution (HBSS), 17 mM HEPES (pH7.4), 1 mM Probenecid, 0.1% BSA) and the cells were incubated for 60 min at 25° C. After washing twice with assay buffer the cells were incubated with a test compound or vehicle for 20 min at 25° C. Mobilization of cytoplasmic Ca^2+ was measured by FDSS-3000 (λex=488 nm, λem=540 nm/Hamamatsu Photonics) for 60 sec after the stimulation with 10 nM capsaicin. Integral R was calculated and compared with controls.

T1 sequence (Q8NER1 whole entry): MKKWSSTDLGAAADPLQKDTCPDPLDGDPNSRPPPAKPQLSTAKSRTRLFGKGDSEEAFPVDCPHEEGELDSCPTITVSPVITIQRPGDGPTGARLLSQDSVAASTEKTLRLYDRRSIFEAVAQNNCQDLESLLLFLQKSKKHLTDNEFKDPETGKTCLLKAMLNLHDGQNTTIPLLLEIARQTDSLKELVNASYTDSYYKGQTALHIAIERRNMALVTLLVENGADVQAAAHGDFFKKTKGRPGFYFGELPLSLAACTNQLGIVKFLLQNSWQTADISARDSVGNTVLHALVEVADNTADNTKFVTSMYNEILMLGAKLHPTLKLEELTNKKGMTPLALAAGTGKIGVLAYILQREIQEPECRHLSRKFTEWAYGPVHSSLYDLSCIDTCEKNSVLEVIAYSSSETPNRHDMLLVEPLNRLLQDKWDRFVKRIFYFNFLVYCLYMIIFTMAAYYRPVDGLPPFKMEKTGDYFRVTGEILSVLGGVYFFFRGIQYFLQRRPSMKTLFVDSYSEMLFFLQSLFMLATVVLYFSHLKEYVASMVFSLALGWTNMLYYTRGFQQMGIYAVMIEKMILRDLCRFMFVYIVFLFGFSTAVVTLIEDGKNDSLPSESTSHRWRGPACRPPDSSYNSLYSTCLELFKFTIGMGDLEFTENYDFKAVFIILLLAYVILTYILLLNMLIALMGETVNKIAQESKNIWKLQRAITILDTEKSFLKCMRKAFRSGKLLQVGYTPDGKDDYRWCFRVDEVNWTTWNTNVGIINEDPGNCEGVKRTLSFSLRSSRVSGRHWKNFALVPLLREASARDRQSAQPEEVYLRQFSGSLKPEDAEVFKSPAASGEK

Row | SMILES | pIC50
1 | CC(=O)OC1Cc2cccc(NC(=O)Nc3ccc(Cl)c(C(F)(F)F)c3)c2C1 (stereo not drawn) [Example 1-1] | 6.00 to 6.30
2 | CC(C)(C)c1cc(NC(=O)Nc2cccc3c2CC(O)CC3)no1 (stereo not drawn) [1-2] | 6.30 to 7.00
3 | O=C(Nc1cccc2c1CC(O)CC2)c1ccc(C(F)(F)F)cc1 (stereo not drawn) [1-3] | 6.30 to 7.00
4 | O=C(Nc1cccc2c1CC(O)CC2)NC1CCCc2ccccc21 (stereo not drawn) [1-7] | > 7.00
5 | O=C(NCc1cccnc1)Nc1cccc2c1CC(O)CC2 (stereo not drawn) [1-5] | 6.00 to 6.30
6 | COc1ccccc1C(=O)Nc1cccc2c1CC(O)CC2 (stereo not drawn) [1-2] | 6.00 to 6.30
7 | Cl.O=C(NCc1ccc(C(F)(F)F)nc1)Nc1cccc2c1CC(O)CC2 (stereo not drawn) [Example 1-13] | > 7.00
8 | O=C(NCc1ccc(C(F)(F)F)nc1)Nc1cccc2c1CC(O)CC2 (stereo not drawn) [Example 1-12] | > 7.00
9 | O=C(NCc1ccncc1)Nc1cccc2c1CC(O)CC2 (stereo not drawn) [1-6] | 6.00 to 6.30
10 | O=C(Nc1cccc2c1CC(O)CC2)NC1CCc2ccccc21 (stereo not drawn) [1-3] | 6.30 to 7.00
11 | O=C(NCc1ccccn1)Nc1cccc2c1CC(O)CC2 (stereo not drawn) [Example 1-9] | 6.00 to 6.30
12 | COC1Cc2cccc(NC(=O)Nc3ccc(Cl)c(C(F)(F)F)c3)c2CC1O (stereo not drawn) [2-8] | 6.30 to 7.00
13 | CC1CCc2cccc(NC(=O)Nc3ccc(Cl)c(C(F)(F)F)c3)c2C1 (stereo not drawn) [Example 3-1] | > 7.00
14 | O=C(Nc1ccc(Cl)c(C(F)(F)F)c1)Nc1cccc2c1CC(CO)CC2 (stereo not drawn) [Example 4-1, N-[4-Chloro-3-(trifluoromethyl)phenyl]-N′-[7-(hydroxymethyl)-5,6,7,8-tetrahydronaphthalen-1-yl]urea] | > 7.00
15 | O=C(NCc1ccc(C(F)(F)F)cc1)Nc1cccc2c1CCC(O)C2 (stereo not drawn) [2-6] | > 7.00
16 | COC1Cc2c(cccc2NC(=O)Nc2ccc(Cl)c(C(F)(F)F)c2)CC1O (stereo not drawn) [Example 2-9] | > 7.00
17 | O=C(Nc1cccc2c1CC(O)CC2)c1cc2cc(Cl)ccc2[nH]1 (stereo not drawn) [Example 1-1] | 6.30 to 7.00
18 | O=C(Nc1ccc(Cl)c(C(F)(F)F)c1)Nc1cccc2c1CCC2O (stereo not drawn) [1-3] | > 7.00
19 | O=C1CCc2c(cccc2NC(=O)Nc2ccc(Cl)c(C(F)(F)F)c2)C1 [Example 2-2] | > 7.00
20 | O=C(Cc1cccc(Br)c1)Nc1cccc2c1CC(O)CC2 (stereo not drawn) [1-4] | 6.00 to 6.30
21 | O=C1CCc2c(cccc2NC(=O)NCc2ccc(C(F)(F)F)cc2)C1 [2-5] | > 7.00
22 | O=C(NCc1ccc2c(c1)OCO2)Nc1cccc2c1CC(O)CC2 (stereo not drawn) [Example 1-10] | > 7.00
23 | O=C(NCc1ccc(-c2csnn2)cc1)Nc1cccc2c1CC(O)CC2 (stereo not drawn) [1-8] | > 7.00
24 | O=C(Nc1ccc(Cl)c(C(F)(F)F)c1)Nc1cccc2c1CC(O)C(O)C2 (stereo not drawn) [2-7] | > 7.00
25 | O=C(Nc1cccc(-c2ccncc2)c1)Nc1cccc2c1CC(O)CC2 (stereo not drawn) [Example 1-11] | > 7.00
26 | O=C(Nc1ccc2c(c1)OCO2)Nc1cccc2c1CC(O)CC2 (stereo not drawn) [Example 1-1] | 6.00 to 6.30
27 | CC(=O)OC1Cc2cccc(NC(=O)NCc3ccc(C(F)(F)F)cc3)c2C1 (stereo not drawn) [1-2] | > 7.00
28 | O=C(Nc1ccc(Cl)c(C(F)(F)F)c1)Nc1cccc2c1CCC(O)C2 (stereo not drawn) [Example 2-3, N-[4-Chloro-3-(trifluoromethyl)phenyl]-N′-(6-hydroxy-5,6,7,8-tetrahydronaphthalen-1-yl)urea] | > 7.00
29 | O=C(Nc1ccc(Oc2ccncc2)cc1)Nc1cccc2c1CC(O)CC2 (stereo not drawn) [1-4] | 6.30 to 7.00
30 | CCOC1=CCc2c(cccc2NC(=O)NCc2ccc(C(F)(F)F)cc2)C1 [2-4] | 6.00 to 6.30

system: not given; test: not given; details: not given

Row | SMILES | melting point
31 | O=C(NCc1ccc(-c2csnn2)cc1)Nc1cccc2c1CC(O)CC2 (stereo not drawn) [Example 1-8] | 225 °C
32 | CCOC1=CCc2c(cccc2NC(=O)NCc2ccc(C(F)(F)F)cc2)C1 [Example 2-4] | 235 °C
33 | O=C(Nc1ccc2c(c1)OCO2)Nc1cccc2c1CC(O)CC2 (stereo not drawn) | 209 to 211 °C
34 | CC(=O)OC1Cc2cccc(NC(=O)Nc3ccc(Cl)c(C(F)(F)F)c3)c2C1 (stereo not drawn) [Example 1-1, 4-[({[4-Chloro-3-(trifluoromethyl)phenyl]amino}carbonyl)amino]-2,3-dihydro-1H-inden-2-yl acetate] | 207 to 209 °C
35 | Cl.O=C(NCc1ccc(C(F)(F)F)nc1)Nc1cccc2c1CC(O)CC2 (stereo not drawn) [Example 1-13] | 204 to 205 °C
36 | O=C(NCc1ccc(C(F)(F)F)nc1)Nc1cccc2c1CC(O)CC2 (stereo not drawn) [Example 1-12] | 211 to 212 °C
37 | O=C1CCc2c(cccc2NC(=O)Nc2ccc(Cl)c(C(F)(F)F)c2)C1 [Example 2-2, N-[4-Chloro-3-(trifluoromethyl)phenyl]-N′-(6-oxo-5,6,7,8-tetrahydronaphthalen-1-yl)urea] | 219 °C
38 | O=C(Nc1cccc2c1CC(O)CC2)c1ccc(C(F)(F)F)cc1 (stereo not drawn) [Example 1-3] | 217 to 218 °C
39 | CC(=O)OC1Cc2cccc(NC(=O)NCc3ccc(C(F)(F)F)cc3)c2C1 (stereo not drawn) [Example 1-2] | 166 to 168 °C
40 | O=C(NCc1ccccn1)Nc1cccc2c1CC(O)CC2 (stereo not drawn) [Example 1-9] | 230 °C
41 | O=C(Nc1cccc2c1CC(O)CC2)NC1CCc2ccccc21 (stereo not drawn) [Example 1-3] | 193 to 195 °C
42 | O=C(Nc1ccc(Oc2ccncc2)cc1)Nc1cccc2c1CC(O)CC2 (stereo not drawn) [Example 1-4] | 200 to 202 °C
43 | COC1Cc2c(cccc2NC(=O)Nc2ccc(Cl)c(C(F)(F)F)c2)CC1O (stereo not drawn) [Example 2-9] | 112 to 127 °C
44 | O=C1CCc2c(cccc2NC(=O)NCc2ccc(C(F)(F)F)cc2)C1 [Example 2-5] | 221 °C
45 | O=C(NCc1cccnc1)Nc1cccc2c1CC(O)CC2 (stereo not drawn) [Example 1-5] | 203 °C
46 | O=C(Nc1cccc2c1CC(O)CC2)NC1CCCc2ccccc21 (stereo not drawn) [Example 1-7] | 216 °C
47 | COc1ccccc1C(=O)Nc1cccc2c1CC(O)CC2 (stereo not drawn) [Example 1-2] | 184 to 186 °C
48 | O=C(NCc1ccc2c(c1)OCO2)Nc1cccc2c1CC(O)CC2 (stereo not drawn) [Example 1-10] | 190 °C
49 | O=C(Nc1cccc(-c2ccncc2)c1)Nc1cccc2c1CC(O)CC2 (stereo not drawn) [Example 1-11] | 208 °C
50 | O=C(Nc1ccc(Cl)c(C(F)(F)F)c1)Nc1cccc2c1CCC2O (stereo not drawn) [Example 1-3] | 221 to 223 °C
51 | O=C(NCc1ccncc1)Nc1cccc2c1CC(O)CC2 (stereo not drawn) [Example 1-6] | 243 °C
52 | CCOC1=CCc2c(cccc2NC(=O)Nc2ccc(Cl)c(C(F)(F)F)c2)C1 [Example 2-1, N-[4Chloro-3-(trifluoromethyl)phenyl]-N′-(6-ethoxy-5,8-dihydronaphthalen-1-yl)urea] | 216 °C
53 | O=C(Nc1ccc(Cl)c(C(F)(F)F)c1)Nc1cccc2c1CCC(O)C2 (stereo not drawn) [Example 2-3, N-[4-Chloro-3-(trifluoromethyl)phenyl]-N′-(6-hydroxy-5,6,7,8-tetrahydronaphthalen-1-yl)urea] | 216 °C
54 | O=C(NCc1ccc(C(F)(F)F)cc1)Nc1cccc2c1CCC(O)C2 (stereo not drawn) [Example 2-6] | 205 °C
